# Reference: patent US9393317B2, “Peptide-conjugated oligonucleotide therapeutic and method of making and using same” (Sloan-Kettering Institute for Cancer Research, priority 2008, dated 2016)
# Key:
# [1] = test system: 4T1 (ATCC CRL-2539) tumor allograft; experiment: In vivo phage display panning, breast carcinoma model, tumor vascular homing phage; set-up: species or system mouse; conditions: tumors resected 5-7 h post phage injection, 3-4 rounds of panning
# Experimental: (§1) To identify peptide sequences displaying homing potential to specific tumors or to the vasculature of specific tumors, in vivo phage display panning was performed. Utilizing commercially available M13-based phage libraries (PhD-7 Prod# E8100S and PhD-C7C E8120S, New England Biolabs, Ipswich, Mass.) phage were isolated that were enriched after 3-4 rounds of panning in different tumor models. These phage particles display surface peptides that potentially confer homing and cellular uptake capabilities.
# Panning was conducted in 4T1 (ATCC CRL-2539) tumor allograft bearing mice. Tumors were resected 5-7 h post phage injection.
# [2] = test system: 4T1 (ATCC CRL-2539) tumor allograft; experiment: In vivo phage display panning, breast carcinoma model, tumor cell homing phage; set-up: species or system mouse; conditions: tumors resected 24 h post phage injection, 3-4 rounds of panning
# Experimental: as §1
# Panning was conducted in 4T1 (ATCC CRL-2539) tumor allograft bearing mice. Tumors were resected 24 h post phage injection.
# [3] = test system: SVR (ATCC CRL-2280, a murine endothelial cell line) tumor allograft; experiment: In vivo phage display panning, angiosarcoma model; set-up: species or system mouse; conditions: tumors resected 24 h post phage injection, 3-4 rounds of panning
# Experimental: as §1
# Panning was conducted in SVR (ATCC CRL-2280, a murine endothelial cell line) tumor allograft bearing mice. Tumors were resected 24 h post phage injection.
# [4] = test system: MMTV-HER2/neu (YD) Id1−/− tumor cells; experiment: MMTV-HER2/neu (YD) Id1−/− allograft model, osmotic pumps, with and without 17-AAG; assay type: in vivo, mouse
# Text: Proc Natl Acad Sci USA 100, 12337-42 (2003)), perhaps due to the requirement of Hsp90 for maintaining Hif1-alpha or HER2/neu stability. Id1-PCAOs were therefore tested in combination with 17-AAG in the MMTV-HER2/neu (YD) Id1-/- allograft model. The Id1-PCAO was delivered in this prolonged experiment via subcutaneously implanted osmotic pumps (7 nmol/d). 17-AAG was given by intraperitoneal injection according to an established protocol, on 3 consecutive days per week after tumor establishment. As controls, saline or the un-conjugated components of the Id1-PCAO (F3-peptide and Id1-AO each at 20 nmol/d) were administered. […] To further control for non-specific effects we repeated the experiment using the same tumor model and added […] which was delivered at the same rate as the Id1-PCAO (7 nmol/d) and the F3-peptide without addition of Id1-AO (20 nmol/d) as control substances. […] The decrease in Id1-positive cells after administration of Id1-PCAO alone was less dramatic than in the intravenous protocol described above. This might be due to the slight decrease in dosage and the changed route of administration (s.c. vs. i.v.). […] Alternatively, animals were implanted s.c. with osmotic pumps (Durect Corp., Cupertino, Calif.) that delivered 7 nmol/d Id1-PCAO (3.5 mg/kg BW) in TBS over a 14 day period. Controls received 20 nmol/d F3-peptide plus 20 nmol/d Id1-AO (in TBS) or TBS. 2×106 MMTV-HER2/neu (YD) Id1-/- tumor cells were injected into the left flank 24 h after implantation of the pumps. After the 14 days treatment period, pumps were replaced using a model with a work period of 7 days. […] Control animals received DMSO:EPL 1:1 i.p at the same schedule. Tumor size was measured using a calliper. Volume was calculated as V=(/6×longest diameter×perpendicular diameter2). Image acquisition and analysis: Epifluorescence, bright field and phase contrast images were acquired using Zeiss Axiostar 200 microscopes. Leica laser confocal microscopes were used for co-localisation studies. For quantification, large fields of the tissue sections were acquired using an automated image acquisition and montaging system (Zeiss Axiostar 200M microscope with MetaMorph Software, Molecular Devices, Sunnyvale, Calif.). […] Three or 4 large field images were used to quantify each section. Stained areas were quantified using MetaMorph or ImageJ software (http://rsb.info.nih.gov/ij/). Images were threshholded and stained area (CD31) was calculated or particles per field were counted (Id1 or Hif1 positive cells). To quantify extent of haemorrhage, H&E whole tumor sections were imaged with a 5× objective and evaluated using the colour threshold function of the Metamorph software.
# [5] = test system: tumor endothelium of high-grade malignant glioma; experiment: Accumulation of FITC-labeled Grp78-GMBS-ASId1 in high-grade malignant glioma mouse model; assay type: in vivo; conditions: retro-orbital injection, four hours post injection
# Text: In a further specific example, the therapeutic agent combines a Grp78 targeting peptide with an Id1 targeting antisense oligonucleotide. A therapeutic agent of this type was synthesized using the Grp-78 targeting peptide of Seq. ID No. 4, GMBS as the HBL, and Id1 antisense of Seq. ID No. 2, labeled with FITC and injected retro-orbitally into a mouse model with a high-grade malignant glioma. Four hours post injection the mouse was sacrificed, and tissue was processed for imaging.
Compound,Frequency of enriched sequence [1],Frequency of enriched sequence [2],further results
23 (GHGASIS; Breast carcinoma tumor vascular homing probe) [compound 23],1/12,–,–
26 (AMPLPVP; Breast carcinoma tumor vascular homing probe) [compound 26],1/12,–,–
19 (TSMTSYR; Breast Carcinoma homing probe) [compound 19],–,1/12,–
21 (HTPMALE; Breast Carcinoma homing probe) [compound 21],–,1/12,–
16 (YSMPAPV; Breast Carcinoma homing probe) [compound 16],–,2/12,–
22 (GHSKAMY; Breast carcinoma tumor vascular homing probe) [compound 22],4/12,–,–
28 (CDPRNPNWC; Breast carcinoma tumor vascular homing probe) [compound 28],1/12,–,–
13 (TSLKMQV; Angiosarcoma homing probe) [compound 13],–,–,Frequency of enriched sequence [3]: 1/15
15 (KWGSNNL; Breast Carcinoma homing probe) [compound 15],–,4/12,–
"C=CCNC1=C2C[C@@H](C)C[C@H](OC)[C@H](O)[C@@H](C)/C=C(\C)[C@H](OC(N)=O)[C@@H](OC)/C=C\C=C(/C)C(=O)NC(=CC1=O)C2=O [17-AAG, 17-(allylamino)-17-demethoxygeldanamycin]",–,–,"tumor growth, agent alone ([4]; Id1-PCAO 7 nmol/d s.c. pumps, F3 and Id1-AO each 20 nmol/d, 17-AAG i.p. 3 consecutive days per week, FIG. 7): delayed tumor growth; Hif1-alpha expression ([4]; mouse, in vivo): counteracted this response; Id1-positive endothelial cells in the tumor, agent alone ([4]; mouse, in vivo): decrease of Id1-positive endothelial cells in the tumor; vascular density ([4]; mouse, in vivo): decreased vascular density"
17 (DSTRPHY; Breast Carcinoma homing probe) [compound 17],–,2/12,–
12 (TLSKQST; Angiosarcoma homing probe) [compound 12],–,–,Frequency of enriched sequence [3]: 1/15
14 (ERVLMQV; Angiosarcoma homing probe) [compound 14],–,–,Frequency of enriched sequence [3]: 1/15
27 (HESTWGP; Breast carcinoma tumor vascular homing probe) [compound 27],1/12,–,–
10 (FPGGYTP; Angiosarcoma homing probe) [compound 10],–,–,Frequency of enriched sequence [3]: 11/15
"Grp78-GMBS-ASId1: Grp-78 targeting peptide of Seq. ID No. 4, GMBS as the HBL, Id1 antisense of Seq. ID No. 2, labeled with FITC (chain WIFPWIQL; antisense gcaccagctccttgaggcgugag; GMBS linker, FITC label; GRP78 homing peptide; antisense oligonucleotide targeting ID1.)",–,–,accumulation in imaged tissue [5]: accumulate around tumor blood vessels; blood brain barrier crossing [5]: crossed the blood brain barrier
24 (NLLAPAG; Breast carcinoma tumor vascular homing probe) [compound 24],1/12,–,–
20 (EKNLTRP; Breast Carcinoma homing probe) [compound 20],–,1/12,–
11 (MFEPVLP; Angiosarcoma homing probe) [compound 11],–,–,Frequency of enriched sequence [3]: 1/15
30 (CPAGQNAHC) [compound 30],1/12,–,–
29 (CLPRHDPYC) [compound 29],1/12,–,–
18 (KYESAPT; Breast Carcinoma homing probe) [compound 18],–,1/12,–
25 (HDLPAVR; Breast carcinoma tumor vascular homing probe) [compound 25],1/12,–,–
